US4434290A, “Pyrido (4,3-B) carbazoles substituted in the 1 position by a polyamine chain” (priority 1978, dated 1984)

Legend:
Friend's virus (VFA) = test: Anemia inducing Friend's virus, measurement of survival time (Table XVIII); format: in vivo, mice; settings: 15 mg/kg; for Death interval / Mean survival time / ILS %: D+1
Description: The following experiments related to the treatment of mice inoculated by the virus of Friend's leukemia.
In these experiments DBA2, male mice, aged from 2 to 3 months, of weight around 20 g, were used.
An anemia inducing strain of Friend's virus (VFA) maintained for several years in the laboratory was used. The viral stock was constituted by an acellular supernatant liquor obtained by the centrifugation of a ground product of leukemic spleens, carried out in an 0.5 M PBS-saccharose solution. The assay of the stock was done in vivo by the method described by JASMIN et al [J. Nat. Cancer Inst. 1974,53, 469-474]. The measurement is expressed in SD50 (50% spleen enlarging dose).
In another series of tests, the mortality of the mice, in which the Friend's virus was injected (VFA) by the intraperitoneal route (dilution 1/800) and the death intervalwere determined, the mean survival time and the percentage of increased life span for the compound 27 according to the invention inoculated on day D+1 at the dose of 15 mg/kg were calculated.

leukemia L1210 = test: Leukemia L1210 in vivo, dose/effect relationship (Table XIV); set-up: species or system mice; settings: for Death interval / ILS % / Mean survival time: 10^5 cells; for Death interval / ILS % / Mean survival time / Surviving mice: D+1; for Surviving mice: groups of six mice
Description: The properties were determined by the curative action inoculated experimental leukemia L1210. This leukemia was maintained on B6 D2 Fl (C 57 Bl/6×DBA/2) Fl mice in the proportion of 6 or 10 mice per experimental batch. The compounds to be tested were injected by the intraperitoneal route one or several days after inoculation of the cells (1 injection only). The death interval was determined, the first figure of the Table indicating the date of the first mouse death and the second the date of the last mouse death. The mean survival time was also measured (MST). A characteristic value is the percentage of increased life span (ILS %). This value (Cancer. Res. 1971, 31, 1883-1887) is the ratio: [formula] where S^t =survival of treated animals and
S^c =survival of control animals.
The study was carried out on experimental groups of six mice by the previously defined method. 10^5 cells were injected at day Do. […] The death interval was determined, the mean survival time was measured (MST) and the percentage of increased life span was calculated (ILS %) by the above-defined formula.

[1] = VFA 1/800, % of leukemias = 99.8
[2] = VFA 1/800, % of leukemias = 100%

## CCN(CC)CCCNc1nccc2c(C)c3[nH]c4ccc(OC)cc4c3c(C)c12 [Compound 27]
Friend's virus (VFA); [1]
  Death interval: 20-64
  Mean survival time: 42.2
Friend's virus (VFA); VFA 1/800, % of leukemias = 99.8, on the surviving mice
  ILS %: 40%
Friend's virus (VFA); VFA 1/800, % of leukemias = 99.8, group of 10 mice
  Survive: 0
Friend's virus (VFA); [2]
  Death interval: 48-72
  ILS %: 143.85%
  Mean survival time: 59.5
Leukemia L1210; 5-20 mg/kg, day D+1
  dose/effect relationship: proportional to the dose inoculated
Leukemia L1210; 5 mg/kg
  Death interval: 16-24
  ILS %: 80.4%
  Mean survival time: 19.3
  Surviving mice: 0 mice
Leukemia L1210; 10 mg/kg
  Death interval: 14-21
  ILS %: 57%
  Mean survival time: 16.8
  Surviving mice: 0 mice
Leukemia L1210; 15 mg/kg
  Death interval: 13-31
  ILS %: 96.3%
  Mean survival time: 21
  Surviving mice: 0 mice
Leukemia L1210; 20 mg/kg
  Death interval: 15-25
  ILS %: 75.7%
  Mean survival time: 18.8
  Surviving mice: 1 mice
